Measured values from US20170318812A1, “Plant and Crop Growth Regulating/Biostimulant Formulations and Methods of Use” (Arysta Lifescience North America, LLC, priority 2014, published 2017).
“And” between values parts separate entries of the source, which are not always exact repeats. Equal values may be shown once.

Assays:
ZEAMX Zea mays (Corn) = test: Ipfencarbazone biostimulant effect, early post emergence foliar application, greenhouse pots, plant height: corn; assay type: in vivo; conditions: ZEAMX AG7098PRO2
Excerpt: (§1) The original objective of this Example was to evaluate the herbicidal effect of ipfencarbazone when applied as a post emergent treatment to a range of selected crops and weeds. Unexpectedly, crop plant growth stimulation was observed. The actual species of weeds and crops are listed in the summary data tabulated below and in FIGS. 1-13. By convention each plant species has a Bayer code (5-letter name) with the scientific name for the plant referenced in FIGS. 1-13. In each Figure, each tray contains the same configuration of weeds and/or crops. In each Figure there is one replication of each treatment (six treatments in total). The top three photographs in each Figure show the Bayer Codes and bottom three photographs are aligned with the top three facilitating viewing of the same plant species. Throughout the Examples various abbreviations as conventional shorthand notation and will be appreciated by those skilled in the art. Some exemplary abbreviations include, “CV”=Co-efficient of Variation,” “LSD”=Least Significant Difference” (G/L (gram per L) AND GA/L (gram of active ingredient per L); “SC”=suspension concentrate formulation. The diluent in all treatments was water. By convention factors that are identical in all treatments (e.g. diluent and surfactant) are not listed in each treatment.
(§2) Methods: The indicated size pots (see Tables below) are filled with a specific soil, the soil properties being indicated below. The referenced crops and weeds are planted by hand in each pot. […] The experiments include six treatments each replicated three times on each crop/weed species. At a specific time after emergence each crop and weed species was treated with ipfencarbazone plus a non-ionic surfactant (NIS). In the present Example, the surfactant employed was ENERGIC™ (non-ionic surfactant). The application timing is indicated in each of the Tables (1 or 2 leaf stage) below. Ipfencarbazone plus surfactant was diluted in water and applied at a rate equivalent to about 250 L/ha. Ipfencarbazone was applied using a track sprayer. After treatment, the pots were randomized in a greenhouse. At each assessment (indicated by “days after treatment” or DAT) the height of each plant was measured. The letters next to each mean indicate the level of statistical significance.
(§3) Replications: 3, Untreated treatments: 1, Design: Randomized Complete Block (RCB), Treatment units: Treated ‘Plot’ experimental unit size, Dry Form. Unit: %, Treated ‘Plot’ experimental unit size Width: 1 meter, Treated ‘Plot’ experimental unit size Length: 1.4 meters, Application volume: 250 L/ha, Mix size: 0.15 liters, […]

[1] = system: GLXMA Glycine max (Soybean); test: Ipfencarbazone biostimulant effect, early post emergence foliar application, greenhouse pots, plant height: soybean; assay type: in vivo; conditions: GLXMA BMXPOTENCIA
Excerpt: as §1, §2, §3

[2] = 62.5 g ai/ha, 15 DA-A, plots 102, 205, 302
[3] = 125 g ai/ha, 15 DA-A, plots 103, 206, 305
[4] = 250 g ai/ha, 15 DA-A, plots 104, 201, 306
[5] = 500 g ai/ha, 15 DA-A, plots 105, 202, 301
[6] = 1000 g ai/ha, 15 DA-A, plots 106, 203, 304

SMILES: CC(C)N(C(=O)n1cnn(-c2ccc(Cl)cc2Cl)c1=O)c1ccc(F)cc1F [ARY-0572-001, ipfencarbazone]
- HEIGHT, percent of untreated check (APoC) (ZEAMX Zea mays (Corn); 62.5 g ai/ha, 15 DA-A): (146.7%)
- HEIGHT, treatment mean (ZEAMX Zea mays (Corn); 62.5 g ai/ha, 15 DA-A): 56.1 a cm and 56.1 cm
- HEIGHT, single plots (replicates) (ZEAMX Zea mays (Corn); [2]): 52.3 cm and 64.8 cm and 51.0 cm
- HEIGHT, percent of untreated check (APoC) (ZEAMX Zea mays (Corn); 62.5 g ai/ha, 28 DA-A): (175.8%)
- HEIGHT, treatment mean (ZEAMX Zea mays (Corn); 62.5 g ai/ha, 28 DA-A): 89.4 a cm and 89.4 cm
- HEIGHT, single plots (replicates) (ZEAMX Zea mays (Corn); 62.5 g ai/ha, 28 DA-A, plots 102, 205, 302): 71.3 cm and 106.7 cm and 90.3 cm
- HEIGHT, percent of untreated check (APoC) (ZEAMX Zea mays (Corn); 125 g ai/ha, 15 DA-A): (156.4%)
- HEIGHT, treatment mean (ZEAMX Zea mays (Corn); 125 g ai/ha, 15 DA-A): 59.8 a cm and 59.8 cm
- HEIGHT, single plots (replicates) (ZEAMX Zea mays (Corn); [3]): 62.7 cm and 59.0 cm and 57.7 cm
- HEIGHT, percent of untreated check (APoC) (ZEAMX Zea mays (Corn); 125 g ai/ha, 28 DA-A): (168.8%)
- HEIGHT, treatment mean (ZEAMX Zea mays (Corn); 125 g ai/ha, 28 DA-A): 85.9 a cm and 85.9 cm
- HEIGHT, single plots (replicates) (ZEAMX Zea mays (Corn); 125 g ai/ha, 28 DA-A, plots 103, 206, 305): 103.0 cm and 82.0 cm and 72.7 cm
- HEIGHT, percent of untreated check (APoC) (ZEAMX Zea mays (Corn); 250 g ai/ha, 15 DA-A): (155.4%)
- HEIGHT, treatment mean (ZEAMX Zea mays (Corn); 250 g ai/ha, 15 DA-A): 59.4 a cm and 59.4 cm
- HEIGHT, single plots (replicates) (ZEAMX Zea mays (Corn); [4]): 56.5 cm and 61.0 cm and 60.7 cm
- HEIGHT, percent of untreated check (APoC) (ZEAMX Zea mays (Corn); 250 g ai/ha, 28 DA-A): (208.3%)
- HEIGHT, treatment mean (ZEAMX Zea mays (Corn); 250 g ai/ha, 28 DA-A): 106.0 a cm and 106.0 cm
- HEIGHT, single plots (replicates) (ZEAMX Zea mays (Corn); 250 g ai/ha, 28 DA-A, plots 104, 201, 306): 108.3 cm and 104.0 cm and 105.7 cm
- HEIGHT, percent of untreated check (APoC) (ZEAMX Zea mays (Corn); 500 g ai/ha, 15 DA-A): (161.9%)
- HEIGHT, treatment mean (ZEAMX Zea mays (Corn); 500 g ai/ha, 15 DA-A): 61.9 a cm and 61.9 cm
- HEIGHT, single plots (replicates) (ZEAMX Zea mays (Corn); [5]): 58.7 cm and 67.0 cm and 60.0 cm
- HEIGHT, percent of untreated check (APoC) (ZEAMX Zea mays (Corn); 500 g ai/ha, 28 DA-A): (205.9%)
- HEIGHT, treatment mean (ZEAMX Zea mays (Corn); 500 g ai/ha, 28 DA-A): 104.8 a cm and 104.8 cm
- HEIGHT, single plots (replicates) (ZEAMX Zea mays (Corn); 500 g ai/ha, 28 DA-A, plots 105, 202, 301): 101.7 cm and 107.7 cm and 105.0 cm
- HEIGHT, percent of untreated check (APoC) (ZEAMX Zea mays (Corn); 1000 g ai/ha, 15 DA-A): (98.3%)
- HEIGHT, treatment mean (ZEAMX Zea mays (Corn); 1000 g ai/ha, 15 DA-A): 37.6 b cm and 37.6 cm
- HEIGHT, single plots (replicates) (ZEAMX Zea mays (Corn); [6]): 48.7 cm and 34.7 cm and 29.3 cm
- HEIGHT, percent of untreated check (APoC) (ZEAMX Zea mays (Corn); 1000 g ai/ha, 28 DA-A): (117.9%)
- HEIGHT, treatment mean (ZEAMX Zea mays (Corn); 1000 g ai/ha, 28 DA-A): 60.0 b cm and 60.0 cm
- HEIGHT, single plots (replicates) (ZEAMX Zea mays (Corn); 1000 g ai/ha, 28 DA-A, plots 106, 203, 304): 91.7 cm and 44.0 cm and 44.3 cm
- HEIGHT, percent of untreated check (APoC) ([1]; 62.5 g ai/ha, 15 DA-A): (113.4%)
- HEIGHT, treatment mean ([1]; 62.5 g ai/ha, 15 DA-A): 15.0 a cm and 15.0 cm
- HEIGHT, single plots (replicates) [1, 2]: 15.3 cm and 14.8 cm (2×)
- HEIGHT, percent of untreated check (APoC) ([1]; 62.5 g ai/ha, 28 DA-A): (146.3%)
- HEIGHT, treatment mean ([1]; 62.5 g ai/ha, 28 DA-A): 30.6a cm
- HEIGHT, percent of untreated check (APoC) ([1]; 125 g ai/ha, 15 DA-A): (84.9%)
- HEIGHT, treatment mean ([1]; 125 g ai/ha, 15 DA-A): 11.2 abc cm and 11.2 cm
- HEIGHT, single plots (replicates) [1, 3]: 6.2 cm and 13.5 cm and 14.0 cm
- HEIGHT, percent of untreated check (APoC) ([1]; 125 g ai/ha, 28 DA-A): (113.8%)
- HEIGHT, treatment mean ([1]; 125 g ai/ha, 28 DA-A): 23.8 ab cm
- HEIGHT, percent of untreated check (APoC) ([1]; 250 g ai/ha, 15 DA-A): (71.8%)
- HEIGHT, treatment mean ([1]; 250 g ai/ha, 15 DA-A): 9.5 bcd cm and 9.5 cm
- HEIGHT, single plots (replicates) [1, 4]: 8.3 cm and 10.8 cm and 9.3 cm
- HEIGHT, percent of untreated check (APoC) ([1]; 250 g ai/ha, 28 DA-A): (87.8%)
- HEIGHT, treatment mean ([1]; 250 g ai/ha, 28 DA-A): 18.3 bc cm
- HEIGHT, percent of untreated check (APoC) ([1]; 500 g ai/ha, 15 DA-A): (45.4%)
- HEIGHT, treatment mean ([1]; 500 g ai/ha, 15 DA-A): 6.0 d cm and 6.0 cm
- HEIGHT, single plots (replicates) [1, 5]: 8.0 cm and 1.3 cm and 8.7 cm
- HEIGHT, percent of untreated check (APoC) ([1]; 500 g ai/ha, 28 DA-A): (63.3%)
- HEIGHT, treatment mean ([1]; 500 g ai/ha, 28 DA-A): 13.2 c cm
- HEIGHT, percent of untreated check (APoC) ([1]; 1000 g ai/ha, 15 DA-A): (65.5%)
- HEIGHT, treatment mean ([1]; 1000 g ai/ha, 15 DA-A): 8.7 cd cm and 8.7 cm
- HEIGHT, single plots (replicates) [1, 6]: 6.7 cm and 10.0 cm and 9.3 cm
